Data on 2 compounds can be found in ChEMBL document CHEMBL4311972, “Discovery of a benzothiophene-flavonol halting miltefosine and antimonial drug resistance in Leishmania parasites through the application of medicinal chemistry, screening and genomics” (Eur J Med Chem, 2019).

The structures appear in SMILES notation. Activity calls are given as the source filed them. The rule behind the calls is not given here.

Data set [1] relates to Leishmania infantum. The data set can be described thus: Antileishmanial activity against Leishmania infantum amastigotes infected in Syrian hamster assessed as reduction in parasite load in liver at 20 mg/kg/day, po for 10 days relative to control. The conditions noted are these: 240 h. In kind it is functional.
A short description of data set [2]: Toxicity in Syrian hamster infected with Leishmania infantum BCN150 promastigotes assessed as spleen weight at 20 mg/kg/day, po for 10 days (reference value: 0.182 +/- 0.036 g). In kind it is organism-based, Mesocricetus auratus. The following applies: in vivo, 240 h.
Data set [3] in a line: Toxicity in Syrian hamster infected with Leishmania infantum BCN150 promastigotes assessed as effect on ALT level at 20 mg/kg/day, po for 10 days measured after the last treatment. Format: organism-based, Mesocricetus auratus. The conditions noted are these: in vivo, 240 h.
Data set [4] in a line: Toxicity in Syrian hamster infected with Leishmania infantum BCN150 promastigotes assessed as effect on plasma urea level at 20 mg/kg/day, po for 10 days measured after the last treatment. In kind it is organism-based, Mesocricetus auratus. The conditions noted are these: in vivo, 240 h.
Data set [5] concerns Leishmania infantum. Briefly: Antileishmanial activity against Leishmania infantum amastigotes infected in Syrian hamster assessed as reduction in parasite load at 40 mg/kg/day, po for 10 days formulated with 8% v/v DMSO relative to control. Format: functional. The following applies: 240 h.
The test system of data set [6] is Leishmania infantum. Briefly: Antileishmanial activity against Leishmania infantum amastigotes infected in Syrian hamster assessed as reduction in parasite load at 40 mg/kg/day, po for 10 days formulated with 50% v/v cyclodextrin relative to control. In kind it is functional. The conditions noted are these: 240 h.
Data set [7] concerns the target T1, Albumin (Homo sapiens, UniProt P02768). Briefly: Binding affinity to human serum albumin by fluorescence based assay. Format: ADME.
The nature of data set [8]: Chemical stability of compound in PBS at 20 uM at pH 8 exposed to 2-mins nitrogen bubbling followed by supplementation with human serum albumin measured for 6 hrs by UV-vis spectrophotometry analysis. Format: physicochemical.
Data set [9] is described as follows: Chemical stability of compound in DMSO at 60 uM assessed as drug degradation measured at room temperature in dark after 1 day by UV-vis spectrophotometric analysis. Format: physicochemical. The conditions noted are these: read-out: Drug degradation.
Data set [10] deals with Leishmania infantum. Briefly: Antileishmanial activity against Leishmania infantum amastigotes infected in Syrian hamster assessed as parasite load within liver at 40 mg/kg/day, po for 10 days formulated with 30% v/v cyclodextrin (reference value: 4333333.333 +/- 3444802.849 /g). Format: functional.
Data set [11] is described as follows: Cytotoxicity against human THP1 cells by MTT assay. In kind it is cell-based, THP-1.
The nature of data set [12]: Selectivity index, ratio of CC50 for human THP1 cells to EC50 for Trypanosoma brucei bloodstream form. Format: toxicity. The following applies: read-out: Ratio CC50/EC50.
The subject of a further data set is Leishmania donovani. The data set can be described thus: Antileishmanial activity against antimony resistant Leishmania donovani BPK190 promastigotes infected in C57BL/6 mouse bone marrow-derived macrophages assessed as reduction in parasite load at 10 uM treated with compound at 24 hrs post-infection measured after 72 hrs post infection by q-PCR analysis relative to control. Format: functional.

The nature of data set [13]: Toxicity in Syrian hamster infected with Leishmania infantum BCN150 promastigotes assessed as liver weight at 40 mg/kg/day, po for 10 days formulated with 30% v/v cyclodextrin (reference value: 5.102 +/- 0.729 g). In kind it is organism-based, Mesocricetus auratus. The following applies: in vivo, 240 h.
A short description of data set [14]: Toxicity in Syrian hamster infected with Leishmania infantum BCN150 promastigotes assessed as adverse effects at 20 mg/kg/every 12 hrs, po for 10 days formulated with 8% v/v DMSO measured daily. The following applies: in vivo. In kind it is organism-based, Mesocricetus auratus.
The nature of data set [15]: Toxicity in Syrian hamster infected with Leishmania infantum BCN150 promastigotes assessed as effect on ALT level at 40 mg/kg/day, po for 10 days formulated with 30 to 50% v/v cyclodextrin measured after the last treatment. The following applies: in vivo, 240 h. Format: organism-based, Mesocricetus auratus.
A short description of data set [16]: Toxicity in Syrian hamster infected with Leishmania infantum BCN150 promastigotes assessed as effect on plasma creatinine level at 40 mg/kg/day, po for 10 days formulated with 30 to 50% v/v cyclodextrin measured after the last treatment. Format: organism-based, Mesocricetus auratus. The following applies: in vivo, 240 h.
Data set [17] can be described thus: Toxicity in Syrian hamster infected with Leishmania infantum BCN150 promastigotes assessed as adverse effects at 20 mg/kg/every 12 hrs, po for 10 days formulated with 50% v/v cyclodextrin measured daily. In kind it is organism-based, Mesocricetus auratus. The following applies: in vivo.
The nature of data set [18]: Tmax in BALB/c mouse at 1 mg/kg, iv measured upto 72 hrs by snapshot method. Format: ADME, organism-based. The conditions noted are these: in vivo.
Data set [19] in a line: Half-life in BALB/c mouse at 1 mg/kg, iv measured upto 72 hrs by snapshot method. In kind it is ADME, organism-based. The conditions noted are these: in vivo.
Data set [20] in a line: Tmax in BALB/c mouse at 20 mg/kg, po measured upto 72 hrs by snapshot method. Format: ADME, organism-based. The conditions noted are these: in vivo.
Data set [21] is described as follows: Plasma concentration in syrian hamster infected with Leishmania infantum BCN150 promastigote at 40 mg/kg/day, po for 10 days formulated with 8% v/v DMSO. In kind it is ADME, organism-based, Mesocricetus auratus.
Data set [22] relates to Leishmania infantum. The data set can be described thus: Anti-leishmanial activity against Leishmania infantum BCN150 promastigotes infected in Syrian hamster assessed as decrease in anti-leishmanial IgG level at 40 mg/kg/day, po for 10 days formulated with 30 to 50 % v/v cyclodextrin by ELISA. Format: functional, organism-based. (In general: In an ELISA, binding on a coated surface is turned into a signal by an enzyme label.)

The nature of data set [23]: Toxicity in Syrian hamster infected with Leishmania infantum BCN150 promastigotes assessed as effect on alkaline phosphatase level at 40 mg/kg/day, po for 10 days formulated with 30 to 50% v/v cyclodextrin measured after the last treatment. The conditions noted are these: in vivo, 240 h. In kind it is organism-based, Mesocricetus auratus.
A short description of data set [24]: Toxicity in Syrian hamster infected with Leishmania infantum BCN150 promastigotes assessed as effect on alkaline phosphatase level at 40 mg/kg/day, po for 10 days formulated with 8% v/v DMSO measured after the last treatment. The conditions noted are these: in vivo, 240 h. Format: organism-based, Mesocricetus auratus.
Data set [25] is described as follows: Chemical stability of compound in PBS assessed as decrease in absorbance at 20 uM at pH 8 measured after 2 mins nitrogen bubbling by UV-vis spectrophotometry analysis. The conditions noted are these: read-out: Drug degradation. In kind it is physicochemical.
Data set [26] deals with T1, Albumin. Briefly: Binding affinity to human serum albumin in phosphate buffer assessed as decrease in emission intensity at 450 nm at 5 uM measured at pH 8 at albumin concentration of 0.6 +/-0.1 uM by fluorescence emission spectrum analysis. Format: ADME. The arrangement: scale not given: the % may be the effect or the level left. The following applies: isolated protein.

Data set [27] is described as follows: Stability of the compound in phosphate buffer assessed as compound lifetime at 450 nm at 5 uM measured at pH 8 by fluorescence emission spectrum analysis. In kind it is physicochemical. The following applies: pH 8, 0.45 µM.
The target of data set [28] is T1, Albumin. The data set can be described thus: Binding affinity to human serum albumin in phosphate buffer assessed as increase in emission anisotropy at 530 nm at 5 uM measured at pH 8 by fluorescence emission spectrum analysis. In kind it is ADME. The conditions noted are these: isolated protein.
Data set [29] has as its target Albumin (Bos taurus, UniProt P02769). The data set can be described thus: Binding affinity to bovine serum albumin in phosphate buffer assessed as compound lifetime at 530 nm at 5 uM measured at pH 8 by fluorescence emission spectrum analysis. In kind it is ADME. The conditions noted are these: cattle, isolated protein.
A further data set deals with T2, Beta-casein (Bos taurus, UniProt P02666).
T2 sequence (P02666 whole entry): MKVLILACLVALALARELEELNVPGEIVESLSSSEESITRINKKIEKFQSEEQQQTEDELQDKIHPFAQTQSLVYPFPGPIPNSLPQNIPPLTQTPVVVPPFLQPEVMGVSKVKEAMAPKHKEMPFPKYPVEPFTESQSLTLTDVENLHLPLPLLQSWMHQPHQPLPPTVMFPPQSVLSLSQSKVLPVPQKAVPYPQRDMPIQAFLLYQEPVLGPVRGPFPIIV
The data set can be described thus: Binding affinity to bovine milk beta-casein in phosphate buffer assessed as compound lifetime at 530 nm at 5 uM measured at pH 8 by fluorescence emission spectrum analysis. In kind it is ADME. The conditions noted are these: cattle.

Data set [30] in a line: Toxicity in Syrian hamster infected with Leishmania infantum BCN150 promastigotes assessed as liver lesions at 40 mg/kg/day, po for 10 days formulated with 8% v/v DMSO measured under necropsy. The following applies: in vivo, 240 h. Format: organism-based, Mesocricetus auratus.

T1 sequence (P02768 whole entry): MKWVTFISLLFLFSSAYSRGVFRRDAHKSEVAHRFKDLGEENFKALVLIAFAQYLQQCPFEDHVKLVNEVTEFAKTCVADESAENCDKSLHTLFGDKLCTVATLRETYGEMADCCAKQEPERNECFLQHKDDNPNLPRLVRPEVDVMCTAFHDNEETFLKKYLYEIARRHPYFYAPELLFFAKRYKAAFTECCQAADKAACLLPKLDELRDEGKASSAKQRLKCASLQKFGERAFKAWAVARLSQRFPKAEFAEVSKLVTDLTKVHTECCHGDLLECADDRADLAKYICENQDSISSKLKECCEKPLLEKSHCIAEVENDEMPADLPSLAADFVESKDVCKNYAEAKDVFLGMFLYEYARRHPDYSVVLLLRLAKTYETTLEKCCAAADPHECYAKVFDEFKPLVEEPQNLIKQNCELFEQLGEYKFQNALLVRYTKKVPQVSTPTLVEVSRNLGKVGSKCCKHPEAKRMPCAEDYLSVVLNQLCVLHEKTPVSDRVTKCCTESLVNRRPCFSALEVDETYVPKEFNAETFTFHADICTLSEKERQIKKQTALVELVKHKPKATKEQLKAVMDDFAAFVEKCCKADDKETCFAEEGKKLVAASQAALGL
Albumin (Bos taurus, UniProt P02769), sequence (P02769 whole entry): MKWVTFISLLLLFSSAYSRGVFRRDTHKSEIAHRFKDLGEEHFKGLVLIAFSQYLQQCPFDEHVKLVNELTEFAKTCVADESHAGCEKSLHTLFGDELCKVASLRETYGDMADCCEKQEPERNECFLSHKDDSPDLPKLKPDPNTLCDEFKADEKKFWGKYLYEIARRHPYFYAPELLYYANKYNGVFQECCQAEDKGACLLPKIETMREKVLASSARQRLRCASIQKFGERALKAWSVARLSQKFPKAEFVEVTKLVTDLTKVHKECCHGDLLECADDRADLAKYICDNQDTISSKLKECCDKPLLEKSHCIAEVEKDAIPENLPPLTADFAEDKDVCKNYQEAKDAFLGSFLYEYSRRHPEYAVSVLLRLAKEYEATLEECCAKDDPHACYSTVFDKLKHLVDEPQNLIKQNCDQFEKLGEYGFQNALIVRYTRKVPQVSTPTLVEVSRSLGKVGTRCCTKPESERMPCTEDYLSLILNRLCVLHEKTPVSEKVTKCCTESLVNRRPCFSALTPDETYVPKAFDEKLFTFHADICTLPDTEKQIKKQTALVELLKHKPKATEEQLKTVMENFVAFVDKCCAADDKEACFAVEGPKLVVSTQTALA

The term inhibition in vivo denotes the change of the read-out against control, counted positive when it falls. `CCCCCCCCCCCCCCCCOP(=O)([O-])OCC[N+](C)(C)C` [MILTEFOSINE]: the inhibition in vivo at 20 mg/kg/day in the data set with Leishmania infantum [1] worked out at 81.2%. Also, the Activity in data set [2] is given as 0.191 g; in data set [3], “Non-Toxic”; in data set [4] it was “Non-Toxic”.
Broadly, the Kd is the free concentration of one partner at which half of the binding sites on the other are occupied at equilibrium, for simple one-to-one binding. By CC50 is commonly meant the concentration giving 50% cytotoxicity. For orientation: inhibition means the change of the read-out against control, counted positive when it falls. For orientation: Tmax means the time at which the peak concentration occurs. For orientation: half-life means how long it takes for the measured level to halve. Take `COc1ccc2oc(-c3csc4ccccc34)c(O)c(=O)c2c1`: the inhibition in vivo at 40 mg/kg/day in the data set with Leishmania infantum [5] was 25.9%; in the data set on Leishmania infantum [6], 35.8%. The compound also returned a Kd at Albumin [7] of less than 10 µM. Moreover, the Stability entry in data set [8] is on record as “Stable”. Moreover, the degraded at 24 h, 60 µM in data set [9] came out at 1%. The Activity in the data set on Leishmania infantum [10] was 3428571.429 g⁻¹; in data set [13], 5.448 g; in data set [14], “Non-Toxic”; in data set [15], “Non-Toxic”; in data set [16], “Non-Toxic”; in [17] it was “Non-Toxic”. The Activity result is given as “Non-Toxic” in data set [23]; “Non-Toxic” in [24]; 50% at Albumin [26]; “Active” on Albumin [28]; “Non-Toxic” in [30]. In data set [11], this compound registered a CC50 of 25 to 50 µM. In addition, in [12], the selectivity ratio came out at 33. Moreover, the inhibition at 10 µM with Leishmania donovani turned out to be 69%. Besides, the values for the Tmax in data set [18] and in [20] were 4.8 min and 1 h, respectively. The same compound showed a half-life in data set [19] of 63.2 h. This compound gave a concentration at 240 h in data set [21] of 44 nM. The inhibition entry in the data set with Leishmania infantum [22] is “Active”. Besides, the degraded at 2 min, 20 µM in data set [25] was greater than 90%. In addition, the Time in data set [27] was found to be 0.32 nanoseconds; on Albumin [29], 5.5 nanoseconds; on Beta-casein, 5.5 nanoseconds.
